Structures are written as SMILES.

Data set [1] concerns UM cell line MEL270. Kind of data set: Screen of PAC-1 in combination with kinase inhibitors, percent cell death. It counts as cell-based. Conditions: MEL270, 72-hour incubation, single agents and combination at the same concentrations (FIG. 2). The text has this: FIG. 2. […] These three types of fusion proteins are key driver alterations in multiple cancer types.
Data set [2] is described as follows: PAC-1 clinical study in human patients, safety. It counts as in vivo. How it is done:
PAC-1 has been dosed in 34 human patients through 7 dose levels of PAC-1 (range: 75-750 mg). Two patients progressed during the first cycle of PAC-1 therapy. Thirty-two patients received PAC-1 for at least 2 dosing cycles (a cycle is 21 days of daily dosing followed by 7 days of no drug). As a result of stable disease responses, six patients received PAC-1 for 4 cycles, three patients received PAC-1 for 6 cycles and two patients received PAC-1 for 10 cycles.

Data set [3] can be described thus: GLP dog PK/preclinical PAC-1 toxicity studies. It counts as in vivo.
Data set [4] has as its system 92.1. Nature of the data set: PAC-1 single agent IC50 in uveal melanoma cell line, 72-hour incubation. Conditions: 92.1, GNAQ Mutant Q209L, error s.e.m. The format is cell-based. The text has this:
(§1) UM cell lines express procaspase-3 (FIG. 1), and PAC-1 has activity as a single agent in a panel of UM cell lines (Table D). [table]

Data set [5] has as its system MEL270. The data set is described as above. Conditions: MEL270, GNAQ Mutant Q209P, error s.e.m. It counts as cell-based.
Text: as §1

Data set [6] concerns MEL290. The data set is described as above. It counts as cell-based. Conditions: MEL290, GNAQ/11 WT, error s.e.m.
Text: as §1

Data set [7] has as its system OMM1. The description is as above. It counts as cell-based. Conditions: OMM-1, OMM1, GNA11 Mutant Q209L, error s.e.m.
Text: as §1

Data set [8] has as its system MEL202. The description is as above. Conditions: MEL202, GNAQ Mutant Q209L, R210K, error s.e.m. It counts as cell-based.
Text: as §1

Data set [9] relates to OMM2.5. The data set is described as above. The format is cell-based. Conditions: OMM2.5, GNAQ Mutant Q209P, error s.e.m.
Text: as §1

The subject of data set [10] is MEL285. The data set is described as above. Conditions: MEL285, GNAQ/11 WT, error s.e.m. It counts as cell-based.
Text: as §1

The subject of data set [11] is ROS1-rearranged lung cancers. Conditions: cited from earlier work.
For data set [12] the following is noted: cited from earlier work.

As for `C=CCc1cccc(/C=N/NC(=O)CN2CCN(Cc3ccccc3)CC2)c1O` [PAC-1], the Percent cell death in [1] is on record as ~16%. For the same molecule, in data set [2] (34 human patients, 7 dose levels, 75-750 mg), the “serious adverse events (SAEs) associated with PAC-1 administration” value is “No serious adverse events”. For the same molecule, the “neurotoxicity associated with PAC-1 dosing” value in [2] (neurological and neurocognitive assessments through dose level 7 (750 mg)) is recorded as “no conclusive signs of neurotoxicity”. Besides, the Brain tissue findings result in [3] is “brain tissue changes observed”. Besides, the IC50 (as a rule, the concentration that inhibits the measured activity by half) in [4] worked out at 3.6 ± 0.7 µM; in [5], 9.8 ± 0.6 µM; in data set [6] it was 11.7 ± 1.2 µM; in data set [7], 4 ± 0.8 µM; in data set [8], 10.3 ± 0.2 µM; in data set [9] it was 9.5 ± 0.5 µM. In addition, inhibition in data set [10] was half-maximal at 7.4 ± 2.6 µM (IC50).

Consider `CN1CCN(c2ccc(C(=O)Nc3n[nH]c4ccc(Cc5cc(F)cc(F)c5)cc34)c(NC3CCOCC3)c2)CC1` [entrectinib], for which, in data set [1], the Percent cell death is on record as ~16%. Also, the “Disease control and progression-free survival” value in data set [11] was “durable disease control and prolonged progression-free survival”. Moreover, the “treatment-related adverse events of any grade: myalgias” value in data set [12] (n=27/119) is reported as 23%. Moreover, the “treatment-related adverse events of any grade: nausea” value in [12] (n=33/119) is listed as 28%. In data set [12] (n=34/119), the “treatment-related adverse events of any grade: paresthesias” value is 29%. Moreover, the “treatment-related adverse events of any grade: dysgeusia” value in data set [12] (n=50/119) is on record as 42%. Moreover, the “treatment-related adverse events of any grade: fatigue/asthenia” value in data set [12] (n=55/119) was 46%.

Values taken from patent publication US12090153B2, “Combination therapy for the treatment of uveal melanoma” (The Board of Trustees of the University of Illinois, priority 2018, dated 2024).
